Results taken from article PMC7571068, “Antiproliferative and Pro-Apoptotic Effect of Uvaol in Human Hepatocarcinoma HepG2 Cells by Affecting G0/G1 Cell Cycle Arrest, ROS Production and AKT/PI3K Signaling Pathway” (Molecules, 2020).

Columns and labels:
MDA-MB-231 line = tested on: MDA-MB-231 line; design: method as in PMID 25412049; conditions: cited from earlier work
WRL68 cells [1] = assay: Muse cell cycle assay (flow cytometry); format: cell-based, human; conditions: WRL68, IC50, 24 h
Description: (§1) A total of 1.5 × 10^5 cells were seeded per well in 24-well plates for each cell line (quadruplicates for three different populations of each cell line). […] Negative control populations were incubated only with the appropriate culture medium. The samples were analyzed in the Muse^TM Cell Analyzer (Merck-Millipore®, Burlington, MA, USA). The method is based on the analysis of the cell cycle through the discrimination of three populations: cells in phase G0/G1, S or G2/M. For this, the Muse^TM Cell Cycle Kit purchased from Millipore (Billerica, MA, USA) was used following the specification of manufacturer.

HepG2 cells [2] = assay: Muse cell cycle assay (flow cytometry); format: cell-based, human; conditions: HepG2, IC50, 24 h
Description: as §1

WRL68 cells [3] = assay: Muse Oxidative Stress kit, ROS production; format: cell-based, human; conditions: WRL68, IC50, 24 h
Description: (§2) A total of 1.5 × 10^5 cells were seeded per well in 24-well plates for each cell line (quadruplicates for three different populations of each cell line). […] Negative control populations were incubated only with the appropriate culture medium. The samples were analyzed in the Muse^TM Cell Analyzer (Merck-Millipore®, Burlington, MA, USA). The method is based on the use of dihydroetide (DHE), a reagent capable of crossing the cell membrane and interacting with superoxide anions, a type of ROS. In this process, DHE oxidizes and forms the DNA intercalating agent ethidium bromide, detectable by its fluorescence emission. […] The Muse^TM Oxidative Stress kit purchased from Millipore (Billerica, MA, USA) was used for this purpose.

HepG2 cells [4] = assay: Muse Oxidative Stress kit, ROS production; format: cell-based, human; conditions: HepG2, IC50, 24 h
Description: as §2

[5] = tested on: p53, c-Myc, Bcl-2, SOD, HSP-60 and Bax proteins in HepG2 cells; assay: Western blot of protein expression; format: cell-based, human; conditions: HepG2, IC50, 24 h, normalized to actin
Description: (§3) Triplicates of three different populations of each cell line, WRL68 and HepG2, were seeded in 6-well plates with a density of 2.5 × 10^5 cells per well. […] For protein extraction, each sample was resuspended in 20 μL of RIPA buffer (150 mM NaCl, 1% Igepal, 0.5% deoxycholic acid, 0.1% SDS, 50 mM Tris HCl pH 7.5, 0.2 M PMSF, […] and Thermo Scientific® PierceTM inhibitor cocktail, Waltham, MA, USA), and held on ice for 15 min. They were centrifuged at 15,000× g for 10 min at 4 °C, the supernatant was collected and stored at −80 °C for further analysis. The quantification of the protein concentration was carried out through the Bradford method. The methodology used for Western blot analysis is described by Mokhtari et al.. Brie fly, the initial separation of the extracts was performed by a 12% polyacrylamide gel electrophoresis under denaturing conditions (SDS-PAGE). A standardized load of 30 μg of protein per well was used after denaturing the samples at 95 °C for 5 min and adding the loading buffer (0.25 mM Tris-HCl pH 6.8, 10% SDS, 1 M DTT and glycerol). The proteins were transferred, by the semi-dry transfer method, (60 mA per gel, 1 h) using the TransBlot Turbo system (BioRad®, Berkeley, CA, USA), to a PVDF membrane. The membranes were blocked with blocking buffer (TBS, 0.1% Tween-20 and 3% skimmed milk) for 1 h at room temperature, incubating with the specific primary antibodies against the proteins studied at 4 °C overnight. The primary antibodies (from Santa Cruz Biotechnology®, Dallas, TX, USA) were diluted in blocking buffer. The membranes were washed with TBS-T (TBS, 0.1% Tween-20) for 5 min three times under stirring, and incubated with the corresponding secondary antibody (from Sigma®, St. Louis, MO, USA) (Table 1) for 1 h at room temperature, repeating the previous washing process later. These secondary antibodies have the enzyme horseradish peroxidase (HRP) coupled, which allows chemiluminescence to be detected in the presence of the protein band due to its ability to oxidize the luminol solution (ECL-plus Western-blot detection system, GE Healthcare, Chicago, IL, USA). The reaction produced was captured inside a ChemiDoc Imaging System (Bio-Rad®, Berkely, CA, USA). The program used to analyze the images obtained was Image Lab Software (Bio-Rad®, for PC 6.1 version). The expression of each protein was normalized referring to actin levels and were represented based on the results obtained for the control situation (WRL68 line without treatment) as percentage of expression (%). The expression obtained in each protein was analyzed through the mentioned program in triplicate.

[6] = tested on: p53, c-Myc, Bcl-2, SOD, HSP-60 and Bax proteins in WRL68 cells; assay: Western blot of protein expression; format: cell-based, human; conditions: WRL68, IC50, 24 h, normalized to actin
Description: as §3

WRL68 cells [7] = assay: Muse Annexin V & Dead Cell apoptosis assay; format: cell-based, human; conditions: WRL68, uvaol IC50, 24 h
Description: (§4) A total of 1.5 × 10^5 cells were seeded per well in 24-well plates for each cell line (quadruplicates for three different populations of each cell line). […] Negative control populations were incubated only with the appropriate culture medium. The samples were analyzed in the Muse^TM Cell Analyzer (Merck-Millipore®, Burlington, MA, USA). Phosphatidylserine (PS) is a phospholipid that is usually found in the inner half of the cytoplasmic membrane, but is outsourced when loss of integrity occurs in the apoptosis process. The method is based on the recognition and binding to the PS exposed by annexin V protein, labeled with a fluorescent substance to detect the interaction and quantify it. We used the Muse^TM Annexin V & Dead Cell kit purchased from Millipore (Billerica, MA, USA), which provides the percentage of viable cells, apoptotic and affected by necrosis.

HepG2 cells [8] = assay: Muse Annexin V & Dead Cell apoptosis assay; format: cell-based, human; conditions: HepG2, uvaol IC50, 24 h
Description: as §4

MCF-7 line = tested on: MCF-7 line; design: method as in PMID 21142067; conditions: MCF-7, 44.27 μg/mL, same phase = G0/G1; cited from earlier work
HepG2 cells [9] = assay: Morphological changes, optical microscopy; format: cell-based, human; conditions: HepG2, IC50, 24 h
Description: Optical microscopy (Olympus® model CX22LED, Tokyo, Japan) images of the cultures were obtained in the mentioned conditions at 10 and 40 magnifications for the cell line each after 24 h of the treatment’s application.

In the case of `C[C@H]1[C@H](C)CC[C@]2(CO)CC[C@]3(C)C(=CC[C@@H]4[C@@]5(C)CC[C@H](O)C(C)(C)[C@@H]5CC[C@]43C)[C@H]12` [uvaol, urs-12-ene-3,28-diol], the “changes in cell cycle progression” value (MDA-MB-231 line) is given as “did not produce changes in the progression of the cycle”, the “change in percentage of cells in G0/G1 phase vs control” value (WRL68 cells [1]) is given as “significant decrease” and the “change in percentage of cells in G2/M phase vs control” value (WRL68 cells [1]) is given as “increase”. For the same compound, the “change in percentage of cells in S phase vs control” value (WRL68 cells [1]) was “significant decrease”, the “change in percentage of cells in G0/G1 phase vs control” value (HepG2 cells [2]) was “statistically significant increase” and the “change in percentage of cells in G2/M phase vs control” value (HepG2 cells [2]) was “equally significant reduction”. The “change in percentage of cells in S phase vs control” value (HepG2 cells [2]) was “No differences were found”, the “change in ROS levels vs control” value (WRL68 cells [3]) was “without significant differences” and the “change in percentage of cells expressing ROS vs control” value (HepG2 cells [4]) was “significant decrease”. The “Bax expression vs control” value [5] was “increased”, the “Bcl-2 expression vs control” value [5] was “decreased” and the “HSP-60 expression vs control” value [5] was “increased in both lines”. The “SOD expression vs control” value [5] was “remained unchanged”, the “c-Myc expression vs control” value [5] was “maintained” and the “p53 expression vs control” value [5] was “remained unchanged”. The “Bax expression vs control” value [6] was “did not produce changes”, the “Bcl-2 expression vs control” value [6] was “did not produce changes” and the “HSP-60 expression vs control” value [6] was “increased in both lines”. The “SOD expression vs control” value [6] was “increased”, the “c-Myc expression vs control” value [6] was “increase” and the “p53 expression vs control” value [6] was “increased”. The “change in number of apoptotic and necrotic cells vs control” value (WRL68 cells [7]) was “equally significant increase”, the “change in number of viable cells vs control” value (WRL68 cells [7]) was “significant decrease” and the “change in percentage of viable cells vs control” value (HepG2 cells [8]) was “significant reduction”. The “change in proportion of apoptotic cells vs control” value (HepG2 cells [8]) was “increasing the proportion of apoptotic cells”, the cell cycle arrest (MCF-7 line) was “arrest in the same phase of the cycle” and the cell morphology change (HepG2 cells [9]) was “slightly more rounded, with very sharp projections and a loss of adhesion to the support”.
